Legend:
Enterovirus A71 = assay: Antiviral activity against EV71 pseudotype virus infected in RD cells after 24 hrs by Bright-Glo luciferase assay; format: functional, organism-based; conditions: Enterovirus A
[1] = Inhibition of EV71 3C protease using NMA-IEALFQGPPK(DNP)FR as substrate preincubated for 30 mins followed by addition of substrate measured after 2 hrs by FRET assay; design: species or system Enterovirus A71
[2] = Cytotoxicity against human RD cells assessed viable cells after 24 hrs by WST-1 assay; format: cell-based

EC50 (Enterovirus A71)	IC50 [1]	Structure (SMILES)	CC50 at 24 h [2]
5.42 µM	7.83 µM	O=C(/C=C/c1ccccc1)N[C@@H](Cc1ccccc1)C(=O)N[C@@H](C[C@@H]1CCCNC1=O)C(=O)C(=O)NCc1ccccc1	> 100 µM
2.63 µM	4.86 µM	O=C(/C=C/c1ccccc1)N[C@@H](Cc1ccccc1)C(=O)N[C@@H](C[C@@H]1CCCNC1=O)C(=O)C(=O)NC1CCCCC1	> 100 µM
1.68 µM	1.78 µM	CC(C)(C)OC(=O)N[C@@H](Cc1ccc(F)cc1)C(=O)N[C@@H](C[C@@H]1CCCNC1=O)C(=O)C(=O)NC1CC1	> 100 µM
1.12 µM	1.32 µM	CC(C)NC(=O)C(=O)[C@H](C[C@@H]1CCCNC1=O)NC(=O)[C@H](Cc1ccc(F)cc1)NC(=O)/C=C/c1ccccc1	> 100 µM
1.55 µM	1.52 µM	O=C(/C=C/c1ccccc1)N[C@@H](Cc1ccc(F)cc1)C(=O)N[C@@H](C[C@@H]1CCCNC1=O)C(=O)C(=O)NC1CC1	> 100 µM
3.57 µM	3.32 µM	O=C(/C=C/c1ccccc1)N[C@@H](Cc1ccccc1)C(=O)N[C@@H](C[C@@H]1CCCNC1=O)C(=O)C(=O)NC1CC1	> 100 µM
1.08 µM	1.88 µM	CCCNC(=O)C(=O)[C@H](C[C@@H]1CCCNC1=O)NC(=O)[C@H](Cc1ccc(F)cc1)NC(=O)/C=C/c1ccccc1	> 100 µM
> 20 µM	> 20 µM	Cc1ccc(NC(=O)C(=O)[C@H](C[C@@H]2CCCNC2=O)NC(=O)[C@H](Cc2ccccc2)NC(=O)/C=C/c2ccccc2)cc1	> 100 µM
> 20 µM	> 20 µM	CCCCCCCCCCCCNC(=O)C(=O)[C@H](C[C@@H]1CCCNC1=O)NC(=O)[C@H](Cc1ccccc1)NC(=O)/C=C/c1ccccc1	> 100 µM
4.5 µM	6.3 µM	O=C(/C=C/c1ccccc1)N[C@@H](Cc1ccccc1)C(=O)N[C@@H](C[C@@H]1CCCNC1=O)C(=O)C(=O)NCc1ccco1	> 100 µM
> 20 µM	> 20 µM	CCCCCNC(=O)C(=O)[C@H](C[C@@H]1CCCNC1=O)NC(=O)[C@H](Cc1ccccc1)NC(=O)/C=C/c1ccccc1	> 100 µM
11.6 µM	8.21 µM	CCCCNC(=O)C(=O)[C@H](C[C@@H]1CCCNC1=O)NC(=O)[C@H](Cc1ccccc1)NC(=O)/C=C/c1ccccc1	> 100 µM
> 20 µM	> 20 µM	CC(C)(C)NC(=O)C(=O)[C@H](C[C@@H]1CCCNC1=O)NC(=O)[C@H](Cc1ccccc1)NC(=O)/C=C/c1ccccc1	> 100 µM
11 µM	5.07 µM	CC(C)CNC(=O)C(=O)[C@H](C[C@@H]1CCCNC1=O)NC(=O)[C@H](Cc1ccccc1)NC(=O)/C=C/c1ccccc1	> 100 µM
2.78 µM	3.71 µM	O=C(/C=C/c1ccccc1)N[C@@H](Cc1ccc(F)cc1)C(=O)N[C@@H](C[C@@H]1CCCNC1=O)C(=O)C(=O)NC1CCCCC1	> 100 µM
15.5 µM	17.6 µM	CCCCNC(=O)C(=O)[C@H](C[C@@H]1CCNC1=O)NC(=O)[C@H](Cc1ccccc1)NC(=O)/C=C/c1ccccc1	> 100 µM
> 20 µM	> 20 µM	CCCCCCNC(=O)C(=O)[C@H](C[C@@H]1CCCNC1=O)NC(=O)[C@H](Cc1ccccc1)NC(=O)/C=C/c1ccccc1	> 100 µM
6.45 µM	8.75 µM	CC(C)NC(=O)C(=O)[C@H](C[C@@H]1CCNC1=O)NC(=O)[C@H](Cc1ccccc1)NC(=O)/C=C/c1ccccc1	> 100 µM
8.12 µM	12.7 µM	O=C(/C=C/c1ccccc1)N[C@@H](Cc1ccccc1)C(=O)N[C@@H](C[C@@H]1CCNC1=O)C(=O)C(=O)NC1CCCCC1	> 100 µM
> 20 µM	> 20 µM	O=C(/C=C/c1ccccc1)N[C@@H](Cc1ccccc1)C(=O)N[C@@H](C[C@@H]1CCCNC1=O)C(=O)C(=O)Nc1ccccc1	> 100 µM
9.59 µM	4.08 µM	CNC(=O)C(=O)[C@H](C[C@@H]1CCCNC1=O)NC(=O)[C@H](Cc1ccccc1)NC(=O)/C=C/c1ccccc1	> 100 µM
> 20 µM	> 20 µM	O=C(/C=C/c1ccccc1)N[C@@H](Cc1ccccc1)C(=O)N[C@@H](C[C@@H]1CCNC1=O)C(=O)C(=O)Nc1ccccc1	> 100 µM
1.66 µM	1.34 µM	CC(C)NC(=O)C(=O)[C@H](C[C@@H]1CCCNC1=O)NC(=O)[C@H](Cc1ccccc1)NC(=O)/C=C/c1ccccc1	> 100 µM
1.32 µM	1.42 µM	CC(C)NC(=O)C(=O)[C@H](CC1CCCNC1=O)NC(=O)[C@H](Cc1ccc(F)cc1)NC(=O)OCc1ccccc1 (single isomer, unassigned)	> 100 µM
> 20 µM	> 20 µM	O=C(/C=C/c1ccccc1)NC(Cc1ccccc1)C(=O)NC(CC1CCNC1=O)C(=O)C(=O)NCc1ccccc1 (single isomer, unassigned)	> 100 µM
> 20 µM	> 20 µM	O=C(/C=C/c1ccccc1)NC(Cc1ccccc1)C(=O)NC(CC1CCCNC1=O)C(=O)C(=O)Nc1ccc([N+](=O)[O-])cc1 (single isomer, unassigned)	> 100 µM

Structure (SMILES)	EC50 (Enterovirus A71)	IC50 [1]	CC50 at 24 h [2]
CCCNC(=O)C(=O)[C@H](C[C@@H]1CCCNC1=O)NC(=O)[C@H](Cc1ccccc1)NC(=O)/C=C/c1ccccc1	4.59 µM	6.22 µM	> 100 µM
